{"source": "patent US20230009337A1", "about": "“Liberty Vitamins and Drinks” (priority 2021, published 2023)", "origin": "cited, not measured here", "key": {"mice": {"tested_on": "mice", "conditions": "acetone/olive oil placed on the mice for 4 weeks"}, "TWIK2 potassium channels": {"molecular_target": "T1, TWIK2 potassium channels (Homo sapiens, UniProt Q9Y257)", "T1 construct": "host or cells: macrophage white blood cell (as described in the diagram)", "T1 sequence (Q9Y257 1-313)": "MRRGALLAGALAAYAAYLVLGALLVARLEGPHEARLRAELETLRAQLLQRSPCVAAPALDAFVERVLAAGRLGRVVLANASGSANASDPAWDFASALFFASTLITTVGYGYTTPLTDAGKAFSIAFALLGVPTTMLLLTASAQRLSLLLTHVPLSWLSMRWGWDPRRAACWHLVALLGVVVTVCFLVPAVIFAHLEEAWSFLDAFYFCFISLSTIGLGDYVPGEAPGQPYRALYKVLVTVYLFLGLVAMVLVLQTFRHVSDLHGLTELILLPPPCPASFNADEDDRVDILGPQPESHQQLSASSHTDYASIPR", "conditions": "macrophage white blood cell; discovered by Dr. Jalees Rehman and Professor Asrar Malik, University of Illinois in Chicago"}}}
{"smiles": "C=C[C@H]1C[N@@]2CC[C@H]1C[C@H]2[C@H](O)c1ccnc2ccc(OC)cc12", "note": "[Quinine]", "values": [{"measurement": "loss of skin and flesh (skin inflammation)", "setting": "mice", "result": "did not have a loss of skin and flesh"}, {"measurement": "inhibition of TWIK2 channels", "setting": "TWIK2 potassium channels", "result": "can inhibit"}]}
